Test results as given in patent US20260262643A1, “HERBICIDAL BENZOXAZINES” (FMC CORPORATION, priority 2022, published 2026).
Like-named read-outs stand apart in the source and are kept apart here.

Key:
[1] = test system: pigweed, palmer; experiment: Test A preemergence; type: in vivo, Amaranthus palmeri; settings: Amaranthus palmeri, pre-emergence, 240 h, read-out: Plant response rating, Pigweed, Palmer; for pest or weed control at 125 g/ha: 125 g ai/ha; for pest or weed control at 500 g/ha: 500 g ai/ha
How it was run: (§1)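 Seeds in loam–sand blend received a directed preemergence soil spray of compound in non-phytotoxic solvent with surfactant; postemergence plants (2–10 cm, one- to two-leaf stage) were sprayed with the same formulation. After 10 days in greenhouse, injury was rated visually versus untreated controls, 0 (no effect) to 100 (complete control).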

[2] = test system: wheat; experiment: Test A preemergence; type: in vivo, Triticum aestivum; settings: Triticum aestivum, pre-emergence, 240 h, read-out: Plant response rating, Wheat; for plant injury at 125 g/ha: 125 g ai/ha; for plant injury at 500 g/ha: 500 g ai/ha
How it was run: as §1

[3] = test system: galium; experiment: Test A postemergence; type: in vivo, Galium aparine; settings: Galium, post-emergence, 240 h, postemergence, 10 days, 0 to 100 scale (0 no effect, 100 complete control); for pest or weed control at 125 g/ha: 125 g ai/ha, read-out: Galium plant response rating; for pest or weed control at 500 g/ha: 500 g ai/ha, visual injury, read-out: Plant response rating, Galium
How it was run: as §1

[4] = test system: sedge, umbrella; experiment: Test B flooded paddy test; type: in vivo, Cyperus difformis; settings: Cyperus difformis, 312 h; 250 g ai/ha, Flood, 13 days, 0 to 100 scale (0 no effect, 100 complete control); read-out: Plant response rating, Sedge, Umbrella
How it was run: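 Flooded to 3 cm at treatment time, 2-leaf plants got the test compound applied straight into the paddy water. They then stayed under constant flood in a greenhouse for 13 days. Ratings used a 0 to 100 visual scale.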

[5] = test system: ryegrass, Italian; experiment: Test A postemergence; type: in vivo, Lolium multiflorum; settings: Lolium multiflorum, post-emergence, 240 h, postemergence, 10 days, 0 to 100 scale (0 no effect, 100 complete control); for pest or weed control at 125 g/ha: 125 g ai/ha, read-out: Ryegrass, Italian plant response rating; for pest or weed control at 500 g/ha: 500 g ai/ha, visual injury, read-out: Plant response rating, Ryegrass, Italian
How it was run: as §1

[6] = test system: wheat; experiment: Test A postemergence; type: in vivo, Triticum aestivum; settings: Triticum aestivum, post-emergence, 240 h, postemergence, 10 days, 0 to 100 scale (0 no effect, 100 complete control); for plant injury at 125 g/ha: 125 g ai/ha, read-out: Wheat plant response rating; for plant injury at 500 g/ha: 500 g ai/ha, visual injury, read-out: Plant response rating, Wheat
How it was run: as §1

[7] = test system: oat, wild; experiment: Test A postemergence; type: in vivo, Avena fatua; settings: Avena fatua, post-emergence, 240 h, postemergence, 10 days, 0 to 100 scale (0 no effect, 100 complete control); for pest or weed control at 125 g/ha: 125 g ai/ha, read-out: Oat, Wild plant response rating; for pest or weed control at 500 g/ha: 500 g ai/ha, visual injury, read-out: Plant response rating, Oat, Wild
How it was run: as §1

[8] = test system: soybean; experiment: Test A postemergence; type: in vivo, Glycine max; settings: Glycine max, post-emergence, 240 h, postemergence, 10 days, 0 to 100 scale (0 no effect, 100 complete control); for plant injury at 125 g/ha: 125 g ai/ha, read-out: Soybean plant response rating; for plant injury at 500 g/ha: 500 g ai/ha, visual injury, read-out: Plant response rating, Soybean
How it was run: as §1

[9] = test system: ragweed; experiment: Test A postemergence; type: in vivo, Ambrosia artemisiifolia; settings: Ambrosia artemisiifolia, post-emergence, 240 h, postemergence, 10 days, 0 to 100 scale (0 no effect, 100 complete control); for pest or weed control at 125 g/ha: 125 g ai/ha, read-out: Ragweed plant response rating; for pest or weed control at 500 g/ha: 500 g ai/ha, visual injury, read-out: Plant response rating, Ragweed
How it was run: as §1

[10] = test system: ragweed; experiment: Test A preemergence; type: in vivo, Ambrosia artemisiifolia; settings: Ambrosia artemisiifolia, pre-emergence, 240 h, read-out: Plant response rating, Ragweed; for pest or weed control at 125 g/ha: 125 g ai/ha; for pest or weed control at 500 g/ha: 500 g ai/ha
How it was run: as §1

[11] = test system: soybean; experiment: Test A preemergence; type: in vivo, Glycine max; settings: Glycine max, pre-emergence, 240 h, read-out: Plant response rating, Soybean; for plant injury at 125 g/ha: 125 g ai/ha; for plant injury at 500 g/ha: 500 g ai/ha
How it was run: as §1

[12] = test system: barnyardgrass; experiment: Test A postemergence; type: in vivo, Echinochloa crusgalli; settings: postemergence, 10 days
How it was run: as §1

[13] = test system: corn; experiment: Test A preemergence; type: in vivo, Zea mays; settings: Zea mays, pre-emergence, 240 h; for Corn plant response rating (crop injury, 0 = no effect, 100 = complete kill) at 125 g/ha: 125 g ai/ha; for Corn plant response rating (crop injury, 0 = no effect, 100 = complete kill) at 500 g/ha: 500 g ai/ha
How it was run: as §1

[14] = test system: foxtail, giant; experiment: Test A postemergence; type: in vivo, Setaria faberi; settings: Setaria faberi, post-emergence, 240 h, postemergence, 10 days, 0 to 100 scale (0 no effect, 100 complete control)
How it was run: as §1

[15] = test system: goosegrass; experiment: Test A postemergence; type: in vivo, Eleusine indica; settings: Eleusine indica, post-emergence, 240 h, postemergence, 10 days, 0 to 100 scale (0 no effect, 100 complete control)
How it was run: as §1

[16] = visual injury after 10 days, 0 to 100 scale, 0 is no effect, 100 is complete control
[17] = 0 to 100 scale (0 no effect, 100 complete control), 10 days

Row | Structure (SMILES) | pest or weed control at 125 g/ha [3] [%] | pest or weed control at 500 g/ha [3] [%] | pest or weed control at 250 g/ha [4] [%] | pest or weed control at 125 g/ha [5] [%] | pest or weed control at 500 g/ha [5] [%] | plant injury at 125 g/ha [6] [%] | plant injury at 500 g/ha [6] [%] | pest or weed control at 125 g/ha [7] [%] | pest or weed control at 500 g/ha [7] [%] | plant injury at 125 g/ha [8] [%] | plant injury at 500 g/ha [8] [%] | pest or weed control at 125 g/ha [9] [%] | pest or weed control at 500 g/ha [9] [%] | further results
1 | CC(C)c1ncn(-c2cc3c(c(C(=O)N4C[C@H](C)Oc5c(Cl)cccc54)c2)OCC3)n1 [Compound 147] | 100 | 100 | 95 | 50 | 80 | 10 | 60 | 30 | 80 | 100 | 100 | 0 | 30 | pest or weed control at 125 g/ha ([1]; 0 to 100 scale): 90%; pest or weed control at 500 g/ha [1, 16]: 100%; plant injury at 125 g/ha ([2]; 0 to 100 scale): 20%; plant injury at 500 g/ha [2, 16]: 50%; pest or weed control at 125 g/ha ([10]; 0 to 100 scale): 0%; pest or weed control at 500 g/ha [10, 16]: 0%; plant injury at 125 g/ha ([11]; 0 to 100 scale): 0%; plant injury at 500 g/ha [11, 16]: 100%; Barnyardgrass plant response rating ([12]; 125 g ai/ha, 0 to 100 scale, 0 no effect, 100 complete control): 10; Plant response rating, Barnyardgrass ([12]; 500 g ai/ha, visual injury, 0 to 100 scale (0 no effect, 100 complete control)): 70; Corn plant response rating (crop injury, 0 = no effect, 100 = complete kill) at 125 g/ha ([13]; 0 to 100 scale): 0%; Corn plant response rating (crop injury, 0 = no effect, 100 = complete kill) at 500 g/ha [13, 16]: 10%
2 | COCc1ncn(-c2cccc(C(=O)N3C[C@H](C)Oc4c(C)cccc43)c2)n1 [Compound 101, [(2S)-2,3-Dihydro-2,8-dimethyl-4H-1,4-benzoxazin-4-yl][3-[3-(methoxymethyl)-1H-1,2,4-triazol-1-yl]phenyl]methanone] | 50 | 90 | 85 | 60 | 60 | 20 | 70 | 40 | 90 | 70 | 100 | 50 | 50 | pest or weed control at 125 g/ha [1, 16]: 90%; pest or weed control at 500 g/ha [1, 17]: 100%; plant injury at 125 g/ha [2, 16]: 0%; plant injury at 500 g/ha [2, 17]: 50%; pest or weed control at 125 g/ha ([14]; 125 g ai/ha, read-out: Foxtail, Giant plant response rating): 90%; pest or weed control at 500 g/ha ([14]; 500 g ai/ha, visual injury, read-out: Plant response rating, Foxtail, Giant): 90%; pest or weed control at 125 g/ha [10, 16]: 0%; pest or weed control at 500 g/ha [10, 17]: 20%; pest or weed control at 125 g/ha ([15]; 125 g ai/ha, read-out: Goosegrass plant response rating): 50%; pest or weed control at 500 g/ha ([15]; 500 g ai/ha, visual injury, read-out: Plant response rating, Goosegrass): 80%; plant injury at 125 g/ha [11, 16]: 20%; plant injury at 500 g/ha [11, 17]: 40%; Corn plant response rating (crop injury, 0 = no effect, 100 = complete kill) at 125 g/ha [13, 16]: 0%; Corn plant response rating (crop injury, 0 = no effect, 100 = complete kill) at 500 g/ha [13, 17]: 60%
